Columns and labels:
[1] = target: T1, Broad substrate specificity ATP-binding cassette transporter ABCG2 (Homo sapiens, UniProt Q9UNQ0)
T1 sequence (Q9UNQ0 whole entry): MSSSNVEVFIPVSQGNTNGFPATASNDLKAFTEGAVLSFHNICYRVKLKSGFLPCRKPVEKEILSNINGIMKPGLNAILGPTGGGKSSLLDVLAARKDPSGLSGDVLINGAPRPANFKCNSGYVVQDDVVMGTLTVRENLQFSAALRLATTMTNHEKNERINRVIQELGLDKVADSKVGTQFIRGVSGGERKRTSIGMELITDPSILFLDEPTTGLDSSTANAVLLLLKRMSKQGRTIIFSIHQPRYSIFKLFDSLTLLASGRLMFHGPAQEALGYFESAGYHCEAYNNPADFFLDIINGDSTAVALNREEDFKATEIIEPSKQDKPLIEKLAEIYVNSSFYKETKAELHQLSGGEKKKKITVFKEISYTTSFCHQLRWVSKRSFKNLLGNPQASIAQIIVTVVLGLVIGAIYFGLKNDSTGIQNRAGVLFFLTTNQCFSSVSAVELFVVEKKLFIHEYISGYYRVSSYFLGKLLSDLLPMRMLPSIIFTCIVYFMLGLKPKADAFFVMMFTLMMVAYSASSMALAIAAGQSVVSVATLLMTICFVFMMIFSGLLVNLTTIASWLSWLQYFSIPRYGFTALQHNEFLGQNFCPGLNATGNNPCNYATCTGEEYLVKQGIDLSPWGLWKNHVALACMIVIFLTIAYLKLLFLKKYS
Description: Inhibition of C-terminal GFP-fused human ABCG2 expressed in MDCK2 cells preincubated for 30 mins followed by Hoechst 33342 addition and measured every 60 secs for 120 mins by Hoechst 33342 accumulation assay

ABCG2 [2] = target: T2, ABCG2 (Homo sapiens, UniProt Q9UNQ0); assay: Inhibition of C-terminal GFP-fused human ABCG2 expressed in MDCK2 cells up to 10 uM preincubated for 30 mins followed by Hoechst 33342 addition and measured every 60 secs for 120 mins by Hoechst 33342 accumulation assay relative to XR9577; type: cell-based; details: MDCK2 cells expressing C-terminal GFP-fused human ABCG2, probe Hoechst 33342, read-out: Imax
T2 sequence (Q9UNQ0 whole entry): T1 sequence (Q9UNQ0 whole entry)

ABCB1 = ABCB1 (Homo sapiens, UniProt P08183); assay: Inhibition of ABCB1 in human A2780adr cells assessed as reduction in calcein AM levels at 10 uM preincubated for 30 mins followed by calcein AM addition measured immediately at 60 sec time interval for 60 mins by fluorescence assay relative to control; type: cell-based; details: probe calcein AM
[3] = target: ATP-dependent translocase ABCB1 (Homo sapiens, UniProt P08183); assay: Inhibition of ABCB1 in human A2780adr cells assessed as reduction in calcein AM levels preincubated for 30 mins followed by calcein AM addition measured immediately at 60 sec time interval for 60 mins by fluorescence assay; type: cell-based
[4] = Growth inhibition of MDCK2 cells after 72 hrs by MTT assay; type: cell-based, Canis lupus familiaris, MDCK-II; details: dog
[5] = Resistance factor, ratio of SN-38 GI50 for MDCK2 cells expressing C-terminal GFP-fused human ABCG2 in presence of 0.316 uM test compound to SN-38 GI50 for MDCK2 cells in absence of test compound; type: functional
ABCG2 [6] = assay: Therapeutic index, ratio of GI50 for MDCK2 cells expressing C-terminal GFP-fused human ABCG2 to IC50 for C-terminal GFP-fused human ABCG2 expressed in MDCK2 BCRP cells; type: toxicity, cell-based; details: dog, read-out: TI
[7] = Growth inhibition of MDCK2 cells expressing C-terminal GFP-fused human ABCG2 after 72 hrs by MTT assay; type: ADME, cell-based, Canis lupus familiaris, MDCK-II; details: dog
[8] = Resistance factor, ratio of SN-38 GI50 for MDCK2 cells expressing C-terminal GFP-fused human ABCG2 in presence of 0.0100 uM test compound to SN-38 GI50 for MDCK2 cells in absence of test compound; type: functional
[9] = Resistance factor, ratio of SN-38 GI50 for MDCK2 cells expressing C-terminal GFP-fused human ABCG2 in presence of 0.100 uM test compound to SN-38 GI50 for MDCK2 cells in absence of test compound; type: functional
[10] = Resistance factor, ratio of SN-38 GI50 for MDCK2 cells expressing C-terminal GFP-fused human ABCG2 in presence of 0.0316 uM test compound to SN-38 GI50 for MDCK2 cells in absence of test compound; type: functional
[11] = Resistance factor, ratio of SN-38 GI50 for MDCK2 cells expressing C-terminal GFP-fused human ABCG2 in presence of 1 uM test compound to SN-38 GI50 for MDCK2 cells in absence of test compound; type: functional
[12] = target: T1, Broad substrate specificity ATP-binding cassette transporter ABCG2; assay: Inhibition of C-terminal GFP-fused human ABCG2 expressed in MDCK2 cells up to 10 uM preincubated for 30 mins followed by Hoechst 33342 addition and measured every 60 secs for 120 mins by Hoechst 33342 accumulation assay; type: cell-based; details: 2 h

ATP-dependent translocase ABCB1, sequence (P08183 whole entry): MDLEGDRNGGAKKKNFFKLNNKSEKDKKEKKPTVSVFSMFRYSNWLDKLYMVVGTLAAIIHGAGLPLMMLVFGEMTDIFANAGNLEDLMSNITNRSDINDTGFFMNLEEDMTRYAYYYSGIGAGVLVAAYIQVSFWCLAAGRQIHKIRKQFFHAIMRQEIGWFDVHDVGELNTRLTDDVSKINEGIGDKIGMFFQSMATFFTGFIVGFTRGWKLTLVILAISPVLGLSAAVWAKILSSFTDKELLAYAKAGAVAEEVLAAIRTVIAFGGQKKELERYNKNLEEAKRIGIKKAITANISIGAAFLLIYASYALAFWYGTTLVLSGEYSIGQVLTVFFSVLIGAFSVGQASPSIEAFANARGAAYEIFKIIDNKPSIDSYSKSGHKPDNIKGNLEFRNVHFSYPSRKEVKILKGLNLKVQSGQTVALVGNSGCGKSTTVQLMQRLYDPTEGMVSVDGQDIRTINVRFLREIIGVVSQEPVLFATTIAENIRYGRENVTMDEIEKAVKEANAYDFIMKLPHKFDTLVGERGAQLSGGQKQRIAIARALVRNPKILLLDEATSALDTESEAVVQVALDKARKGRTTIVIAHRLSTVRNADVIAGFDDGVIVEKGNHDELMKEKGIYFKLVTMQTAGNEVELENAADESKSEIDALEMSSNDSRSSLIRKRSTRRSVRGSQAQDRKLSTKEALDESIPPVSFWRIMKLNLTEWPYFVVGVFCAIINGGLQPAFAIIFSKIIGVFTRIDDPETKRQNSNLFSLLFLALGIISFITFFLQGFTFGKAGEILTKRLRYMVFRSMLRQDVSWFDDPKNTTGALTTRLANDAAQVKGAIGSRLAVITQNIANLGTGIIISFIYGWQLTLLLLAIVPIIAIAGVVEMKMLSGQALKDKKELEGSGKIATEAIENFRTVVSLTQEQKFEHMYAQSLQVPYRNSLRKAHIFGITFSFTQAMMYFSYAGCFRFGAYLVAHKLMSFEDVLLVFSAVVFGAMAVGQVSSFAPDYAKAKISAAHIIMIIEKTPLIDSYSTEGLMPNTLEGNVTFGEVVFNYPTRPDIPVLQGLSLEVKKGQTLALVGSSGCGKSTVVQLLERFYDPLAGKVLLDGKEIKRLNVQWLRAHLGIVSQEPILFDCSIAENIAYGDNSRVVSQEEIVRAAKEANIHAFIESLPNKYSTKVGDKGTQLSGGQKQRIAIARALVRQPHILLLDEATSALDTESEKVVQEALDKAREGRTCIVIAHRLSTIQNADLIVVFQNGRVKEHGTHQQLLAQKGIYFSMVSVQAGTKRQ
ABCB1, sequence (P08183 whole entry): as above

Row | SMILES | IC50 [1] [nM] | Emax at 2 h (ABCG2 [2]) [%] | also measured
1 | O=C(Nc1ccccc1-c1nnn(-c2ccccc2)n1)c1cccnc1 | 445 | 81 | –
2 | O=C(Nc1ccccc1-c1nnn(-c2ccccc2)n1)C12CC3CC(CC(C3)C1)C2 | 1060 | 99 | inhibition at 1 h, 10 µM (ABCB1): 51%; IC50 [3]: 11000 nM
3 | COc1ccc(-n2nnc(-c3ccccc3NS(=O)(=O)c3ccc(OC)cc3)n2)cc1 | 7670 | 100 | –
4 | COc1ccc(C(=O)Nc2ccccc2-n2cc(-c3ccc(OC)cc3)nn2)cc1 | 2360 | 100 | –
5 | O=C(Nc1ccccc1-c1nnn(-c2ccccc2)n1)c1cccc2ccccc12 | 430 | 85 | –
6 | COc1ccc(-n2nnc(-c3ccccc3NC(=O)C3CCCCC3)n2)cc1 | 565 | 95 | –
7 | O=C(Nc1ccccc1-n1cc(-c2ccccc2)nn1)c1ccccc1 | 15300 | 100 | GI50 at 72 h [4]: 452000 nM; RatioGI50 [5]: 2.38; selectivity ratio (ABCG2 [6]): 33.1; GI50 at 72 h [7]: 506000 nM; RatioGI50 [11]: 1.63; RatioGI50 [9]: 3.59; IC50 [3]: 21200 nM; RatioGI50 [10]: 5.37
8 | COc1ccc(C(=O)Nc2ccccc2-c2nnn(-c3ccc(OC)cc3)n2)cc1 | – | – | inhibition (INH) [12]: Not Active
9 | COc1ccc(-n2nnc(-c3ccccc3NC(C)=O)n2)cc1 | 3230 | 100 | –
10 | COc1ccc(-n2nnc(-c3cccc(NC(=O)c4ccc(C(F)(F)F)cc4)c3)n2)cc1 | 18500 | 100 | –
11 | c1ccc(-c2ccccc2-c2nnn(-c3ccccc3)n2)cc1 | 8340 | 100 | –
12 | CC(=O)Nc1ccccc1-c1nnn(-c2ccccc2)n1 | 6910 | 100 | –
13 | COc1ccc(-n2nnc(-c3ccccc3-n3nnc(-c4ccc(C(F)(F)F)cc4)n3)n2)cc1 | 15800 | 100 | –
14 | COc1ccc(C(=O)Nc2ccccc2-c2nnc(-c3ccc(OC)cc3)o2)cc1 | 438 | 124 | GI50 at 72 h [4]: 487000 nM; RatioGI50 [5]: 1.29; selectivity ratio (ABCG2 [6]): 836; GI50 at 72 h [7]: 404000 nM; RatioGI50 [8]: 6.61; RatioGI50 [9]: 2.17; RatioGI50 [10]: 5.07
15 | COc1ccc(-n2nnc(-c3ccccc3NC(=O)c3ccc(C(F)(F)F)cc3)n2)cc1 | – | – | inhibition (INH) [12]: Not Active
16 | COc1ccc(-n2nnc(-c3ccc(NC(=O)c4ccc(C(F)(F)F)cc4)cc3)n2)cc1 | 39800 | 100 | –
17 | COc1ccc(-n2nnc(-c3ccccc3NC(=O)c3cccs3)n2)cc1 | 351 | 90 | –
18 | COc1ccc(C(=O)Nc2ccccc2-c2nn[nH]n2)cc1 | – | – | inhibition (INH) [12]: Not Active
19 | O=C(Nc1ccccc1-c1nnn(-c2ccccc2)n1)c1ccncc1 | 287 | 97 | –
20 | O=C(Nc1ccccc1-c1nnn(-c2ccccc2)n1)c1ccccn1 | 733 | 99 | IC50 [3]: 5910 nM
21 | O=C(Nc1ccccc1-c1nn[nH]n1)c1ccccc1 | – | – | inhibition (INH) [12]: Not Active
22 | COc1ccc(-c2cn(-c3ccccc3NC(=O)c3ccc(C(F)(F)F)cc3)nn2)cc1 | 766 | 118 | –

Now from value to compound, other results behind:

Row | IC50 [1] [nM] | Emax at 2 h (ABCG2 [2]) [%] | SMILES | also measured
23 | 61.6 | 103 | COc1ccc(C(=O)Nc2ccccc2-c2nnn(-c3ccc(OC)nc3)n2)cc1 | GI50 at 72 h [4]: 80100 nM; RatioGI50 [5]: 1.04; selectivity ratio (ABCG2 [6]): 1270; GI50 at 72 h [7]: 78000 nM; RatioGI50 [8]: 4.49; RatioGI50 [9]: 1.1; IC50 [3]: 8550 nM; RatioGI50 [10]: 2.64
24 | 112 | 101 | O=C(Nc1ccccc1-c1nnc(-c2ccccc2)o1)c1ccccc1 | GI50 at 72 h [4]: 60800 nM; RatioGI50 [5]: 1.49; selectivity ratio (ABCG2 [6]): 658; GI50 at 72 h [7]: 73700 nM; RatioGI50 [8]: 5.51; RatioGI50 [9]: 1.52; RatioGI50 [10]: 2.61
25 | 129 | 50 | COc1ccc(-n2nnc(-c3cc(OC)ccc3NC(=O)c3ccc([N+](=O)[O-])cc3)n2)cc1 | –
26 | 267 | 78 | COc1ccc(-n2nnc(-c3ccccc3NC(=O)c3cccc4ccccc34)n2)cc1 | –
27 | 190 | 106 | O=C(Nc1ccccc1-c1nnn(-c2ccccc2)n1)c1ccc2c(c1)OCCO2 | –
28 | 130 | 95 | COc1ccc(-n2nnc(-c3ccccc3NC(=O)c3ccc(C(F)(F)F)cc3)n2)cn1 | –
29 | 176 | 51 | O=C(Nc1ccccc1-c1nnn(-c2ccccc2)n1)c1cnc2ccccc2c1 | –
30 | 228 | 82 | COc1ccc(-n2nnc(-c3ccccc3NC(=O)c3cnc4ccccc4c3)n2)cc1 | –
31 | 90 | 47 | COc1ccc(-c2nnc(-c3ccccc3NC(=O)c3ccc(C(F)(F)F)cc3)o2)cc1 | –
32 | 259 | 123 | O=C(Nc1ccccc1-c1nnn(-c2ccccc2)n1)c1ccc2c(c1)OCO2 | –
33 | 287 | 97 | O=C(Nc1ccccc1-c1nnn(-c2ccccc2)n1)C1CCCCC1 | –
34 | 270 | 106 | O=C(Nc1ccccc1-c1nnn(-c2ccccc2)n1)c1cccs1 | –
35 | 77.4 | 96 | COc1ccc(-n2nnc(-c3cc(OC)ccc3NC(=O)c3ccc(C(F)(F)F)cc3)n2)cc1 | –
36 | 102 | 120 | COc1ccc(-n2nnc(-c3ccccc3NC(=O)c3ccccc3)n2)cn1 | –

Source: ChEMBL document CHEMBL4196008, “Structure activity relationships, multidrug resistance reversal and selectivity of heteroarylphenyl ABCG2 inhibitors” (Eur J Med Chem, 2018)
